≈ marks a conversion by molar mass, not a printed value.

In series [1] the test system is HeLa cells. It counts as cell-based.
Series [2] deals with VEEV vaccine strain (TC-83). The following applies: cited from earlier work.
Series [3] has as its system TC-83. The following applies: mouse, in vivo, ip; cited from earlier work.
In series [4] the test system is TC-83. More on the design: species or system C3H/HeN mice. The following applies: mouse, in vivo.
Series [5] relates to TC-83 virus. Kind of series: microbe, parasite or virus in culture. It counts as cell-based, Venezuelan equine encephalitis virus (VEEV).
The test system of series [6] is VEEV (ZPC738 virulent strain). As to the kind of experiment: microbe, parasite or virus in culture. It counts as cell-based, Venezuelan equine encephalitis virus (VEEV).
For series [7] the following is noted: pH 7.4; cited from earlier work.
The mark [8] stands for this setting: Venezuelan equine encephalitis virus, HeLa, 24 h.

`O=C(N/N=C/c1ccc(O)c(O)c1)c1cc2ccccc2cc1O` [DYN, dynasore]: in series [1], the “LC-MSN internalization in presence of inhibitor (in words)” value is listed as “clearly inhibited” and the “reduction of the percentage of cells that internalized LC-MSNs” value came to 71%.
The corresponding values for `CN(C)CCCN1c2ccccc2Sc2ccc(Cl)cc21` [CPZ, chlorpromazine] are “clearly inhibited” and 84%.
For `Oc1ccc2ccccc2c1SSc1c(O)ccc2ccccc12` [IPA-3], the “LC-MSN internalization in presence of inhibitor (in words)” value in series [1] is given as “not”.
For the compound `CN1CCN(C)C(=Nc2ccc([N+](=O)[O-])cc2C(=O)Nc2ccccc2)C1` [ML336, 2-[(1,4-dimethylpiperazin-2-ylidene)amino]-5-nitro-N-phenylbenzamide], the “reduction of viral titer” value in series [2] (at nanomolar concentrations) was 630,000 fold. Moreover, the EC90 (in general, the concentration needed for an effect of 90%) in series [2] was 170 nM. In addition, in series [3], the survival rate is 71%. Besides, the “brain viral load / titer vs PBS (in words)” value in series [4] is recorded as “not significantly different from PBS treated animals”. In addition, the “TC-83 viral inhibition (in words)” value in series [5] (HeLa cells, increasing concentration or LC-MSN mass) is “dose-dependent manner”. Also, the IC50 (as a rule, the concentration that inhibits the measured activity by half) in series [5] (setting [8]) was 163 nM; in series [6] (setting [8]), 15 nM. The “VEEV viral inhibition (in words)” value in series [6] (HeLa cells, 24 hours) is “dose-dependent manner”. Also, in series [7], the solubility (commonly the concentration that dissolves in the medium under given conditions) was 40 µg/mL (≈ 109 µM).
As to `CO/C1=C\C(C)=C\[C@@H](C)[C@@H](O)[C@@H](C)C/C(C)=C/C=C/[C@H](OC)[C@@H]([C@@H](C)[C@@H](O)[C@H](C)[C@@]2(O)C[C@@H](O)[C@H](C)[C@@H](C(C)C)O2)OC1=O` [BAF, bafilomycin A], in series [1], the “LC-MSN internalization / uptake in presence of inhibitor (in words)” value is “almost completely inhibited” and the “LC-MSN internalization in presence of inhibitor (in words)” value is “clearly inhibited”.
Turning to `CCCCCCCCCCCCCC(=O)O[C@@H]1[C@@H](C)[C@@]2(O)[C@@H](C=C(CO)C[C@]3(O)C(=O)C(C)=C[C@@H]23)[C@@H]2C(C)(C)[C@]12OC(C)=O` [PMA, phorbol 12-myristate 13-acetate], the “LC-MSN internalization in presence of inhibitor (in words)” value in series [1] was “not”.

(Values after patent publication US11045554B1 (National Technology & Engineering Solutions of Sandia, LLC, priority 2018, dated 2021).)
